According to patent publication US9980943B2, “Methods of treating muscular dystrophy” (BOARD OF REGENTS OF THE NEVADA SYSTEM OF HIGHER EDUCATION, …, priority 2013, dated 2018):

Columns and labels:
Assay type in all cases: cell-based, mouse
[1] = test system: β-galactosidase in CMV-LacZ C2C12 myoblasts; assay: CMV-LacZ secondary screen in C2C12 myoblasts (β-Gal stabilizing assay); details: CMV-LacZ C2C12 myoblasts
Summary of the method: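 A secondary screen identifies compounds that stabilize β-gal independently of the native promoter, using CMV-LacZ C2C12 cells. Curves span 0.5–40 μM at six levels, in duplicate.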

[2] = test system: α7 integrin (LacZ reporter in α7βgal+/− myoblasts); assay: Myoblast α7+/LacZ integrin FDG assay (Burkin assay in myoblasts, 96-well); details: α7+/LacZ myoblasts, 96-well
[3] = test system: α7 integrin (LacZ reporter in α7+/LacZ myotubes); assay: Myotube α7 integrin FDG assay (Burkin assay in myotubes, 96-well); details: myotubes
[4] = test system: β-galactosidase in CMV-LacZ C2C12 myotubes; assay: CMV-LacZ secondary screen in C2C12 myotubes (β-Gal stabilizing assay); details: C2C12 CMV-LacZ myotubes, fold relative to DMSO
Summary of the method: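 β-gal stabilization was measured in C2C12 myoblasts or myotubes stably transfected with a CMV-driven LacZ construct, using the FDG β-gal assay. Compounds were tested in dose-response at 0.5, 1, 5, 10, 20 and 40 μM, with two replicates per point.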

Structure (SMILES) | CMV-LACZ in Myoblasts (β-galactosidase activity relative to DMSO) ([1]; 0.5 uM) | CMV-LACZ in Myoblasts (β-galactosidase activity relative to DMSO) ([1]; 1 uM) | CMV-LACZ in Myoblasts (β-galactosidase activity relative to DMSO) ([1]; 5 uM) | CMV-LACZ in Myoblasts (β-galactosidase activity relative to DMSO) ([1]; 10 uM) | CMV-LACZ in Myoblasts (β-galactosidase activity relative to DMSO) ([1]; 20 uM) | CMV-LACZ in Myoblasts (β-galactosidase activity relative to DMSO) ([1]; 40 uM) | Burkin Assay in Myoblasts, signal relative to DMSO ([2]; 0.5 uM) | Burkin Assay in Myoblasts, signal relative to DMSO ([2]; 1 uM) | Burkin Assay in Myoblasts, signal relative to DMSO ([2]; 5 uM) | Burkin Assay in Myoblasts, signal relative to DMSO ([2]; 10 uM) | Burkin Assay in Myoblasts, signal relative to DMSO ([2]; 20 uM) | Burkin Assay in Myoblasts, signal relative to DMSO ([2]; 40 uM) | Burkin Assay in Myotubes, α7 integrin LacZ reporter signal relative to DMSO ([3]; 0.5 uM) | Burkin Assay in Myotubes, α7 integrin LacZ reporter signal relative to DMSO ([3]; 1 uM) | Burkin Assay in Myotubes, α7 integrin LacZ reporter signal relative to DMSO ([3]; 5 uM) | Burkin Assay in Myotubes, α7 integrin LacZ reporter signal relative to DMSO ([3]; 10 uM) | Burkin Assay in Myotubes, α7 integrin LacZ reporter signal relative to DMSO ([3]; 20 uM) | Burkin Assay in Myotubes, α7 integrin LacZ reporter signal relative to DMSO ([3]; 40 uM) | CMV-LACZ in Myotubes, signal relative to DMSO ([4]; 0.5 uM) | CMV-LACZ in Myotubes, signal relative to DMSO ([4]; 1 uM) | also measured
CCC(CC)C(=O)Nc1c(C(=O)N2CCN(c3ccccc3)CC2)oc2ccccc12 [MLS001116079-01] | 1.0950 | 1.0492 | 0.9306 | 1.0228 | 1.0448 | 0.9078 | 1.03 | 1.087 | 1.025 | 0.9749 | 1.244 | 1.34 | 0.9524 | 0.9502 | 0.9559 | 0.9012 | 0.9027 | 0.9686 | 1.3543 | 0.8152 | CMV-LACZ in Myotubes, signal relative to DMSO ([4]; 5 uM): 1.0227; CMV-LACZ in Myotubes, signal relative to DMSO ([4]; 10 uM): 1.1374; CMV-LACZ in Myotubes, signal relative to DMSO ([4]; 20 uM): 0.9063; CMV-LACZ in Myotubes, signal relative to DMSO ([4]; 40 uM): 1.0811
Cc1ccc(NS(=O)(=O)c2ccc(-c3ccc(=O)[nH]n3)o2)c(C)c1 [MLS001116535-01] | 1.0167 | 1.1779 | 1.0944 | 1.0580 | 1.1815 | 1.1263 | 1.092 | 1.111 | 0.998 | 0.9386 | 1.239 | 1.267 | 0.95 | 1.003 | 0.8929 | 0.8553 | 0.8993 | 0.8366 | 1.2552 | 0.8771 | CMV-LACZ in Myotubes, signal relative to DMSO ([4]; 5 uM): 1.0648; CMV-LACZ in Myotubes, signal relative to DMSO ([4]; 10 uM): 1.2856; CMV-LACZ in Myotubes, signal relative to DMSO ([4]; 20 uM): 0.9800; CMV-LACZ in Myotubes, signal relative to DMSO ([4]; 40 uM): 1.0011
Cc1ccccc1NC(=O)c1ccc2c(O)c(S(=O)(=O)c3ccccc3)c(=O)[nH]c2c1 [MLS001122698-01] | 1.1513 | 1.1003 | 0.7759 | 0.8608 | 1.0404 | 1.0639 | 0.9829 | 0.8573 | 1.008 | 0.9652 | 0.9061 | 0.8389 | 0.9131 | 0.9039 | 0.9575 | 1.03 | 0.9209 | 0.8572 | 1.0019 | 1.0133 | CMV-LACZ in Myotubes, signal relative to DMSO ([4]; 5 uM): 1.2038; CMV-LACZ in Myotubes, signal relative to DMSO ([4]; 10 uM): 1.1482; CMV-LACZ in Myotubes, signal relative to DMSO ([4]; 20 uM): 1.0340; CMV-LACZ in Myotubes, signal relative to DMSO ([4]; 40 uM): 1.0110
